Data on eight compounds can be found in PubChem BioAssay (NCI).

Some test systems named below: A498 renal; A549 NSCLC; MOLT-4 leukemia; NCI-H226 lung; NCI-H460 lung; OVCAR-3 ovarian; SK-MEL-28 melanoma; SK-MEL-5 melanoma; SK-OV-3 ovarian; UO-31 renal.
Common to all, as to assay: NCI anticancer screen, dose series, 48 h

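Briefly, cells in 96-well plates were exposed to five compound concentrations for 48 h, and endpoints were estimated by linear interpolation. At the GI50, growth is halved. TGI denotes the concentration required for complete inhibition of growth.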

In the case of `CC(C)Oc1cc(OCC(=O)O)cc(C(=O)N(CCC(N)=O)C(=O)Nc2ccc(C(=O)O)cc2OC(C)C)c1`, the GI50 in the assay with A498 renal, in the assay on A549 NSCLC, in the assay on MOLT-4 leukemia, in the assay with NCI-H226 lung, in the assay on NCI-H460 lung and in the assay with OVCAR-3 ovarian was greater than 100 µM throughout. Besides, the GI50 with SK-MEL-28 melanoma, with SK-MEL-5 melanoma, in the assay on SK-OV-3 ovarian and with UO-31 renal was greater than 100 µM each time. In addition, the TGI with A498 renal, in the assay on A549 NSCLC, with MOLT-4 leukemia, with NCI-H226 lung, in the assay on NCI-H460 lung and in the assay on OVCAR-3 ovarian was greater than 100 µM in each case. In addition, the TGI in the assay on SK-MEL-28 melanoma, in the assay on SK-MEL-5 melanoma, in the assay with SK-OV-3 ovarian and with UO-31 renal was greater than 100 µM throughout.
Turning to `CCOP1(=O)OCC2OC(n3cnc4c(N)ncnc43)C(O)C2O1` (centres undefined), the TGI in the assay on A498 renal, in the assay on A549 NSCLC, in the assay with MOLT-4 leukemia, with NCI-H226 lung, in the assay with NCI-H460 lung and with OVCAR-3 ovarian was greater than 100 µM throughout. For the same compound, the TGI in the assay on SK-MEL-28 melanoma, in the assay with SK-MEL-5 melanoma, in the assay with SK-OV-3 ovarian and in the assay on UO-31 renal was greater than 100 µM throughout.
With `O=c1ccc2nc(-c3ccccc3)nn(-c3ccccc3)c-2c1`, the GI50 with A498 renal was 18.1 µM; with A549 NSCLC, 9.26 µM; in the assay with MOLT-4 leukemia it was 0.546 µM; in the assay with NCI-H226 lung it was 2 µM; in the assay on NCI-H460 lung it was 6.63 µM; in the assay on OVCAR-3 ovarian, 1.01 µM. Moreover, the GI50 with SK-MEL-28 melanoma was 1.63 µM; with SK-MEL-5 melanoma, 3.71 µM; in the assay with SK-OV-3 ovarian it was 13.3 µM; in the assay with UO-31 renal, 0.512 µM. In addition, the TGI is 33.4 µM in the assay with A498 renal; 36.7 µM in the assay on A549 NSCLC; 1.97 µM in the assay on MOLT-4 leukemia; 4.21 µM in the assay with NCI-H226 lung; 18.3 µM in the assay on NCI-H460 lung; 2.34 µM in the assay on OVCAR-3 ovarian. Also, the TGI with SK-MEL-28 melanoma is 3.11 µM; in the assay on SK-MEL-5 melanoma, 16.3 µM; in the assay on SK-OV-3 ovarian, 26.6 µM; in the assay on UO-31 renal, 0.992 µM.
In the case of `CC[C@]1(O)C[C@@H]2CN(Cc3c([nH]c4ccccc34)[C@@](C(=O)OC)(c3cc4c(cc3OC)N(C)[C@H]3[C@@](O)(C(=O)OC)[C@H](OC(C)=O)[C@]5(CC)[C@@H]6C[C@@H]6CN6CC[C@]43[C@@H]65)C2)C1`, the GI50 in the assay with A498 renal was 0.163 µM; in the assay on A549 NSCLC, 0.234 µM; with MOLT-4 leukemia, 0.0484 µM; with NCI-H226 lung it was greater than 1.44 µM; in the assay with NCI-H460 lung, 0.109 µM; with OVCAR-3 ovarian, 0.0162 µM. In addition, the GI50 is 0.0822 µM with SK-MEL-28 melanoma, 0.119 µM in the assay with SK-MEL-5 melanoma, 0.0841 µM with SK-OV-3 ovarian and greater than 3.59 µM with UO-31 renal. Moreover, the TGI is greater than 2.85 µM in the assay on A498 renal; greater than 4.38 µM in the assay with A549 NSCLC; greater than 4.38 µM with MOLT-4 leukemia; greater than 4.38 µM in the assay with NCI-H226 lung; greater than 4.38 µM in the assay with NCI-H460 lung; greater than 4.38 µM in the assay on SK-MEL-28 melanoma. The TGI was 1.85 µM in the assay with SK-MEL-5 melanoma, greater than 4.38 µM in the assay with SK-OV-3 ovarian and greater than 4.38 µM in the assay with UO-31 renal.
Consider `CC(=O)OCC1OC(n2cc(F)c(=O)[nH]c2=O)C(OC(C)=O)C1OC(C)=O` (centres undefined), for which the TGI in the assay on A498 renal was greater than 100 µM; in the assay on A549 NSCLC, greater than 100 µM; in the assay with MOLT-4 leukemia it was greater than 77.7 µM; in the assay with NCI-H226 lung it was greater than 100 µM; in the assay on NCI-H460 lung it was greater than 100 µM; in the assay on OVCAR-3 ovarian it was 91.8 µM. Moreover, the TGI with SK-MEL-28 melanoma was greater than 100 µM; in the assay with SK-MEL-5 melanoma, greater than 100 µM; with SK-OV-3 ovarian, greater than 100 µM; in the assay on UO-31 renal, greater than 96.1 µM.
For `O=c1[nH]nc(-c2ccccc2)c(-c2ccccc2)c1-n1nc(-c2ccccc2)c2ccccc2c1=O`, the TGI is greater than 100 µM in the assay on A498 renal; greater than 100 µM in the assay with A549 NSCLC; 88.7 µM with MOLT-4 leukemia; greater than 100 µM with NCI-H226 lung; greater than 100 µM in the assay on NCI-H460 lung; greater than 100 µM in the assay on OVCAR-3 ovarian. For the same compound, the TGI with SK-MEL-28 melanoma, with SK-MEL-5 melanoma, in the assay with SK-OV-3 ovarian and in the assay on UO-31 renal was greater than 100 µM each time.
On to `COc1ccccc1/C=C1\COc2ccc(O)c(O)c2C1=O`, for which the GI50 in the assay with A498 renal was 3.4 µM; with A549 NSCLC, 2.95 µM; in the assay with MOLT-4 leukemia, 1.79 µM; in the assay on NCI-H226 lung it was 1.9 µM; in the assay on NCI-H460 lung, 1.83 µM; in the assay on OVCAR-3 ovarian, 0.834 µM. For the same compound, the GI50 in the assay with SK-MEL-28 melanoma was 1.91 µM; in the assay on SK-MEL-5 melanoma, 1.56 µM; in the assay on SK-OV-3 ovarian it was 4.68 µM; with UO-31 renal it was 1.04 µM. Also, the TGI in the assay with A498 renal is 18 µM; with A549 NSCLC, greater than 100 µM; in the assay with MOLT-4 leukemia it was 19.1 µM; in the assay on NCI-H226 lung, 5.08 µM; in the assay on NCI-H460 lung, 4.09 µM; in the assay with OVCAR-3 ovarian, 6.68 µM. Further, the TGI in the assay with SK-MEL-28 melanoma was 4.44 µM; with SK-MEL-5 melanoma, 3.18 µM; in the assay on SK-OV-3 ovarian it was greater than 100 µM; in the assay on UO-31 renal it was 2.24 µM.
With `Cc1ncc(C(=O)Nc2ccc(CN3CCN(C)CC3)c(C(F)(F)F)c2)cc1C#Cc1c(N)ncc2ccc(C#N)cc12`, the GI50 in the assay with A498 renal was 1.21 µM; in the assay with A549 NSCLC, 2.82 µM; in the assay on MOLT-4 leukemia it was 1.03 µM; in the assay with NCI-H226 lung, 0.451 µM; in the assay on NCI-H460 lung it was 4.05 µM; with OVCAR-3 ovarian it was 1.57 µM. For the same compound, the GI50 in the assay with SK-MEL-28 melanoma was 0.0676 µM; in the assay on SK-MEL-5 melanoma, 1.1 µM; in the assay on SK-OV-3 ovarian it was 1.7 µM; in the assay on UO-31 renal, 1.26 µM. Further, the TGI stood at 4.55 µM with A498 renal; 14.4 µM in the assay with A549 NSCLC; 19.4 µM with MOLT-4 leukemia; 2.3 µM with NCI-H226 lung; 12.1 µM with NCI-H460 lung; 8.54 µM in the assay with OVCAR-3 ovarian. In addition, the TGI was found to be 1.91 µM in the assay with SK-MEL-28 melanoma, 8.59 µM in the assay on SK-MEL-5 melanoma, 10.9 µM with SK-OV-3 ovarian and 4.99 µM in the assay on UO-31 renal.
